Source: patent US20130263298A1, “MODELS FOR DIAGNOSIS, PREVENTION AND TREATMENT OF ALZHEIMER'S DISEASE” (INDIGO CAPITAL GROUP LLC, priority 2012, published 2013)

How the values were obtained:
GCLc enzyme = test: Western Blot test for GCLc enzyme levels in supplement-fed flies; type: in vivo, Drosophila melanogaster; details: optimal dose (3x), 15 days feeding, compared to the control
Protocol: For the phase-III of the experiment, a new set of Drosophila melanogaster were bred for Western blot and Glutathione assays. […] Single, triple, and six times strength for each of the three supplements were added to 25 flies each in vials along with control for 15 days. The flies were then transferred to perform the Western Blot test to check for GCLc enzyme levels for each group. […] Details of the procedure for Western Blot are mentioned below. A western blot is a method that allows investigators to detect a specific protein in a given sample of tissue. The flies were frozen with dry ice, then standardized, lysis buffer added, homogenized and then centrifuged. The proteins were separated by their molecular weight ([…]) by SDS-PAGE, polyacrylamide gel electrophoresis. An 8% acryl amide gel was used. Smaller proteins migrate faster. Samples were loaded into the wells and a voltage of 150 Volts was applied. The proteins were transferred to a PVDF sheet of special blotting paper. The uniformity was checked by the Coomassie stain. […] A digital image of the western blot was captured using fluorescence and analysed.

Glutathione = test: Fluorometric Glutathione Assay (monochlorobimane) in supplement-fed flies; type: in vivo, Drosophila melanogaster; details: optimal dose (3x), 15 days feeding, compared to the control
Protocol: For the phase-III of the experiment, a new set of Drosophila melanogaster were bred for Western blot and Glutathione assays. […] Single, triple, and six times strength for each of the three supplements were added to 25 flies each in vials along with control for 15 days. The flies were then transferred to perform the Western Blot test to check for GCLc enzyme levels for each group. […] Glutathione Detection Kit from BioVision's ApoGSH was used for an in vitro assay for detection of total glutathione changes in tissue samples. The assay used monochlorobimane (MCB), a dye that appears to form an adduct exclusively with glutathione. […] The reaction was catalysed by glutathione S-transferase. Thus, the amount of total glutathione was detected using a fluorimeter. In an embodiments of the present invention, the kit contents included Cell Lysis Buffer—25 ml, Monochlorobimane (25 mM)—200 μl, GST Reagent (50 U/ml)-200 μl, and GSH Standard (1 mg; MW: 307)—1 Vial. Monochlorobimane was dissolved in DMSO and warmed at a temperature above 18° C. for use. After opening the kit, MCB, GST, and GSH were stored at −20° C. and Cell Lysis Buffer was stored at 4° C. The GSH standard was reconstituted with 100 μl dH2O to generate 10 μg/μl standard stock solution. […] Reading: […] The sample readings were applied to the standard curve to calculate total glutathione amount in each sample. […]

Drosophila melanogaster = test: Phase-I lifespan of yellow-white Drosophila fed dietary supplements; type: in vivo; details: male yellow-white Drosophila, supplement at optimal RDA in diet; for increase in mean survival / longevity: vs. control (36 days)
Protocol: For the phase-I of the study, approximately 1200 male yellow-white Drosophila were bred, isolated and monitored on a daily basis. About 100 fruit flies were tested for each supplement, divided into four vials containing 25 flies each.
In an embodiment of the present invention, a mathematical formula was developed by the inventor for an optimal dosage: Recommended daily human dosage of each supplement per day, divided by 1,000,000 (average weight of a person 50 kg, average weight of 100 flies […]), multiplied by 2 as tubes are used initially for two days, multiplied by 100 as it is assumed only 1% of the food is consumed, multiplied by 4 as bulk food was made for 1 week/8 days. According to the formula, if 100 mg is the recommended human daily dosage of a supplement, the fly dose is 0.08 mg. This was considered optimal required daily allowance (RDA). The supplements were measured on the milligram gemological weighing machine and combined with the regular Drosophila diet (Carolina 424 media, yeast, water) in a temperature controlled insect culture incubator under optimal conditions. 50% survival was calculated by counting the flies that died and transferring the live flies into a different vial with newly made media every two days and near the end, every day. The observations were recorded, calculated, graphed and analysed. Two tailed t-tests were performed to test for statistical significance.

SMILES	increase in GCLc enzyme (GCLc enzyme) [%]	increase in glutathione (Glutathione) [%]	increase in mean survival / longevity (Drosophila melanogaster) [%]	mean survival (Drosophila melanogaster; control 36 days) [days]
Oc1ccc(C=Cc2cc(O)cc(O)c2)cc1 [Resveratrol]	1	100	39	50
COC1=C(OC)C(=O)C(C/C=C(\C)CC/C=C(\C)CC/C=C(\C)CC/C=C(\C)CC/C=C(\C)CC/C=C(\C)CC/C=C(\C)CC/C=C(\C)CC/C=C(\C)CCC=C(C)C)=C(C)C1=O [Coenzyme Q10]			11	
CC(=O)N[C@@H](CS)C(=O)O [NAC, N acetyl cysteine]			28	
N[C@@H](CCC(=O)N[C@@H](CS)C(=O)NCC(=O)O)C(=O)O [Glutathione]	7	154	11	
